What was measured:
HIV-1 IIIB [1] = assay: GFP-assay in Jurkat A72 (LTR-GFP) cells; type: cell-based; settings: Human immunodeficiency virus 1, IIIB, 72 h, 3 days after infection
UG275 subtype A = assay: Virucidal assay on clinical isolates, titration on PBMCs; type: cell-based, HIV-1; settings: 125 μM, 1 h 37°C, untreated control 16242
[2] = test system: HIV-1 NL4.3 transmission from Raji/DC-SIGN cells to C8166 cells; assay: Transmission of DC-SIGN-captured virus to C8166 cells in presence of compound (procedure C); type: cell-based; settings: Human immunodeficiency virus 1; HIV-captured Raji/DC-SIGN cocultivated with C8166 in presence of compound; giant cell formation
[3] = test system: HIV-1 IIIB chronically-infected HuT-78 cells; assay: Gag processing in virions from HIV-1 IIIB chronically-infected HuT-78 cells (western blot); type: cell-based; settings: HuT-78/IIIB cells treated 43 hours; WDO-217 50, 25 μM; ritonavir 2.7 μM; SRR-SB3 75, 15 μM
Procedure: Recently, it has been shown that this new mechanism involves acetylation of the NCp7 region of Gag, thereby blocking Gag processing.
HIV-1 IIIB virions from persistently infected HuT-78 cells treated with different concentrations of compound were analysed by gel electrophoresis and immunoblotted with antibody against capsid.
Chronically-infected HIV-1 IIIB HuT-78 cells (HuT-78/IIIB) were washed four times with PBS to remove all free virions before treatment and 2 × 10^5 cells were resuspended in 1 ml compound-containing medium for 43 hours at 37°C. Then, virions were prepared from clarified supernatants (10 min at 300 g) by centrifugation at 36670 g for 2 hours at 4°C. Protein from lysed virions were separated by SDS-PAGE on a NuPage® Novex 4-12% Bis-Tris gel (Invitrogen) and transferred on a hydrophobic polyvinylidene difluoride (PVDF) membrane (Amersham Hybond™-P). The blot was blocked overnight at 4°C by 5% dry milk powder in Western blot wash solution (WBWS; PBS + 0.5% Tween 20), washed three times for 5 minutes with WBWS and incubated with a mouse anti-HIV-1 p24 antibody (1:5000) from Abcam. The blot was then washed three times for 5 minutes with WBWS and incubated for 1 h with a goat anti-mouse IgG-HRP secondary antibody (1:2500) from Santa Cruz Biotechnology. […]

NC(11-55) = assay: Zinc ejection monitored by supramolecular mass spectrometry; type: biochemical, HIV-1; settings: non-denaturing MS, Vc = 20 V, Pi = 6 mbar
Procedure: Purity and homogeneity of NC(11-55) were verified by mass analysis in denaturing conditions. In these acidic conditions, zinc is released from the peptide; and a molecular weight of 5137. 7 ± 0.4 Da was measured, in agreement with the expected mass of the zinc-free NC form (5137.9 Da). […] This is in contrast to the earlier discovered DIBA zinc ejectors for which the Zn ejection is accompanied by the formation of covalent complexes formed between the compound and Cys residues of Zn-depleted NCp7 [25].
Figure 5 Zinc ejection as monitored by mass spectrometry. […] Under non-denaturing conditions (Vc = 20 V, Psi = 6 mbar), the mass measured for NCp7(11-55) alone is 5264.0 Da corresponding to the NC peptide complexed with two zinc ions.
Before mass spectrometry (MS) analysis, NC(11-55) was dissolved and buffer exchanged with 50 mM ammonium acetate pH 7.0 using 4 cycles of microcentrifuge size exclusion filtering (Vivaspin 500 5kD, Sartorius Stedim biotech, Aubagne, France) and peptide concentration was measured by a Bradford assay. […]
Analyses under non-denaturing conditions were carried out after careful optimization of instrumental settings to avoid dissociation of noncovalent bonds and obtain sensible detection of protein/zinc complexation states. […] Peak intensities were used to estimate the ratios of the different ions detected.

ETH2220 subtype C = assay: Virucidal assay on clinical isolates, titration on PBMCs; type: cell-based, HIV-1; settings: 125 μM, 1 h 37°C, untreated control 64969
[4] = test system: HIV-1 NL4.3 transmission from Raji/DC-SIGN cells to C8166 cells; assay: Transmission of DC-SIGN-captured pretreated virus to C8166 cells (procedure B); type: cell-based; settings: Human immunodeficiency virus 1; Raji/DC-SIGN exposed to compound-pretreated (1 h) HIV, compound removed, cocultured with C8166
[5] = test system: HIV-1 NL4.3 capture by Raji/DC-SIGN cells; assay: HIV capture by Raji/DC-SIGN cells (procedure A), p24 ELISA; settings: HIV pretreated 1 h with compound, then Raji/DC-SIGN cells; p24 of washed cell pellet
Procedure: After 60 minutes of pre-incubation with the Raji/DC-SIGN cells, unabsorbed virus and test compound were carefully removed by repeated washing steps, and the amount of captured virus was determined by measurement of the virus-associated p24 content on the Raji/DC-SIGN cell surface. The α(1-3)/(1-6)-mannose-specific plant lectin HHA was included as a positive control for inhibition of virus capture by Raji/DC-SIGN cells.
Then, 0.5 ml exponentially growing Raji/DC-SIGN cells (10^6 cells) was added, and the suspension further incubated at 37°C for 60 minutes. Subsequently, 39 ml medium was added and the cell suspension was centrifuged at 300 g for 10 minutes. The obtained pellet was washed again with 40 ml medium and after centrifugation, the cell pellet (containing DC-SIGN-bound virus) was analyzed for p24 antigen content by ELISA. […] In the above-described experiments, the mannose-binding entry inhibitor HHA was included as a reference compound.

HSV = assay: Activity against replication of non-retroviruses; type: cell-based
HIV-1 IIIB [6] = assay: Anti-HIV activity in CEM cells (cytopathogenicity); type: cell-based; settings: Human immunodeficiency virus 1, IIIB, CCRF-CEM
HIV-1 virus particles = assay: Virion-associated genomic RNA of pre-treated virus (RT-qPCR, Northern blot); settings: compound-cleared HIV-1 virus stock, RT-qPCR or Northern blot

## Cn1sc(=N)nc1-c1ccccc1 [WDO-217, 2-methyl-3-phenyl-2H-[1,2,4]thiadiazol-5-ylideneamine]
HIV-1 IIIB [1]
  EC50: 1.04 ± 0.2 µM
UG275 subtype A
  CCID50/ml UG275 subtype A: 2558 CCID50/ml
[2]
  IC50: 8.3 ± 0.4 µM
[3]
  accumulation of unprocessed Gag polyprotein in progeny virus: did not result in a drastic accumulation
NC(11-55)
  covalent complex between NC(11-55) and compound: no covalent complex
ETH2220 subtype C
  CCID50/ml ETH2220 subtype C: 2558 CCID50/ml
[4]
  IC50: 2.2 ± 1 µM
[5]
  IC50 HIV-capture procedure A: not able to prevent binding
HSV
  activity against replication of HSV: inactive
HIV-1 IIIB [6]
  EC50: 8.3 ± 1.8 µM
HIV-1 virus particles
  viral genomic RNA content after treatment: clear decrease
